pIC50: −log10 of the molar value.

In the assay the test system is Plasmodium falciparum. Put plainly: Antimalarial activity against chloroquine-resistant Plasmodium falciparum K14 infected in human red blood cells after 48 hrs by [3H]hypoxanthine incorporation assay. The format is functional, organism-based.
For the molecule `CC(C)[C@@H]1CC[C@@H](C)C[C@H]1O[C@@H]1C(=O)N([C@@H](C)c2ccccc2)[C@@H]1c1ccc(Br)cc1`, the pIC50 (usually −log10 of the IC50, conventionally taken in molar units) was 4.96.
`C[C@@H](c1ccccc1)N1C(=O)[C@@H](Oc2ccccc2)[C@H]1c1ccc(Cl)cc1`: the pIC50 was 4.38.
The molecule `Cc1ccc([C@@H]2[C@H](O[C@@H]3C[C@H](C)CC[C@H]3C(C)C)C(=O)N2[C@@H](C)c2ccccc2)cc1` showed a pIC50 of 4.46.
The same measure for `CC(C)[C@@H]1CC[C@@H](C)C[C@H]1O[C@@H]1C(=O)N([C@@H](C)c2ccccc2)[C@@H]1c1ccc([N+](=O)[O-])cc1`: 4.57.
`C[C@@H](c1ccccc1)N1C(=O)[C@H](Oc2ccccc2)[C@@H]1c1ccc(Cl)cc1` showed a pIC50 of 4.38.
As to `COc1ccc(N2C(=O)[C@@H](O[C@@H]3C[C@H](C)CC[C@H]3C(C)C)[C@H]2c2ccc(Cl)cc2)cc1`, the pIC50 is < 4.30.
The same measure for `CC(C)[C@@H]1CC[C@@H](C)C[C@H]1O[C@@H]1C(=O)N([C@@H](C)c2ccccc2)[C@@H]1/C=C/c1ccccc1`: < 4.30; for `CC(C)[C@@H]1CC[C@@H](C)C[C@H]1O[C@@H]1C(=O)N([C@@H](C)c2ccccc2)[C@@H]1c1ccc(F)cc1`: 4.72; for `CC(C)[C@@H]1CC[C@@H](C)C[C@H]1O[C@@H]1C(=O)N([C@@H](C)c2ccccc2)[C@@H]1c1ccc2ccccc2c1`: 5.00.
`CC(C)[C@@H]1CC[C@@H](C)C[C@H]1O[C@@H]1C(=O)N([C@@H](C)c2ccccc2)[C@@H]1c1ccccc1[N+](=O)[O-]` gave a pIC50 of 4.68.
To `COc1ccc([C@@H]2[C@H](O[C@@H]3C[C@H](C)CC[C@H]3C(C)C)C(=O)N2[C@@H](C)c2ccccc2)cc1` belongs 4.89; to `CC(C)[C@@H]1CC[C@@H](C)C[C@H]1O[C@@H]1C(=O)N([C@@H](C)c2ccccc2)[C@@H]1c1ccccc1Cl`, 4.44; to `CC(C)[C@@H]1CC[C@@H](C)C[C@H]1O[C@@H]1C(=O)N([C@@H](C)c2ccccc2)[C@@H]1c1ccc(Cl)cc1`, 4.48.
To `COc1cccc([C@@H]2[C@H](O[C@@H]3C[C@H](C)CC[C@H]3C(C)C)C(=O)N2[C@@H](C)c2ccccc2)c1` belongs 5.10; to `Cc1cccc([C@@H]2[C@H](O[C@@H]3C[C@H](C)CC[C@H]3C(C)C)C(=O)N2[C@@H](C)c2ccccc2)c1`, 4.38; to `COc1ccc([C@@H]2[C@H](O[C@@H]3C[C@H](C)CC[C@H]3C(C)C)C(=O)N2[C@@H](C)c2ccccc2)cc1OC`, 5.10.
Consider `COc1ccc(N2C(=O)[C@H](O[C@@H]3C[C@H](C)CC[C@H]3C(C)C)[C@@H]2c2ccc(Cl)cc2)cc1`, for which the pIC50 was < 4.30.
